Laboratory results as given in patent publication US6376521B1, “A3 adenosine receptor antagonists” (The United States of America as represented by the …, priority 1998, dated 2002).
Like-named read-outs stand apart in the source and are kept apart here.

Assays:
human A3 receptors = biological target: T1, human A3 receptors (Homo sapiens, UniProt P0DMS8); assay: Displacement of specific [125I]AB-MECA binding at human A3 receptors expressed in HEK cells, in membranes; conditions: for Ki: [125I]AB-MECA, HEK cell membranes, n = 3-4, read-out: hA3 Ki ± S.E.M.; for rA1/hA3: ratio of affinities rat A1 vs human A3
T1 construct: expressed in transfected cells
T1 sequence (P0DMS8 1-318): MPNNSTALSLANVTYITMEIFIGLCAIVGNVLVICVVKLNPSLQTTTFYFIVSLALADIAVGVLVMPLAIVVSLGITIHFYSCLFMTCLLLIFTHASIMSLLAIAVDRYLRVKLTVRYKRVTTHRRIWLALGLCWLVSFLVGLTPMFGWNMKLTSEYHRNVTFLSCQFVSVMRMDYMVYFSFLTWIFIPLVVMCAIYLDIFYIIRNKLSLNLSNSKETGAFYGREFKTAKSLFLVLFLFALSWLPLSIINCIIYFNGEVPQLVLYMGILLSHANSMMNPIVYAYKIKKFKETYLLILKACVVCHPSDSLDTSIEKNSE

A2A adenosine receptors = biological target: T2, A2A adenosine receptors (Rattus norvegicus, UniProt P30543); assay: Displacement of specific [3H]CGS 21680 binding in rat striatal membranes; conditions: for Ki: [3H]CGS 21680, rat striatal membranes, n = 3-6, read-out: rA2A Ki ± S.E.M.
T2 construct: from tissue
T2 sequence (P30543 whole entry): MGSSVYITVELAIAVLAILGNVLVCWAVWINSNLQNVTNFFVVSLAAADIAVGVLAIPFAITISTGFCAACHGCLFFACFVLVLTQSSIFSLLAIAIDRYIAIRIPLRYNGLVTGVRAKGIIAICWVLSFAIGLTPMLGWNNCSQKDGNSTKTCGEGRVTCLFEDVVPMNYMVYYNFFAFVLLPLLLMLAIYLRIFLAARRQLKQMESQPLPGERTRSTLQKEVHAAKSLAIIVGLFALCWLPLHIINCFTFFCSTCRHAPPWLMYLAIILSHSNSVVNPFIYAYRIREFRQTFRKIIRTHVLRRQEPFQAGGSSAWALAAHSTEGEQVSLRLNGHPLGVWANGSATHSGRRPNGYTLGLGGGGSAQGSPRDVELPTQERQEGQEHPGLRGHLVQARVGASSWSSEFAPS

A1 adenosine receptors = biological target: T3, A1 adenosine receptors (Rattus norvegicus, UniProt P25099); assay: Displacement of specific [3H]R-PIA binding in rat brain membranes; conditions: for inhibition at 100 µM: read-out: rA1 % inhibition (percentage of specific binding displaced); for Ki: [3H]R-PIA, rat brain membranes, n = 3-5, read-out: rA1 Ki ± S.E.M.
T3 construct: from tissue
T3 sequence (P25099 1-326): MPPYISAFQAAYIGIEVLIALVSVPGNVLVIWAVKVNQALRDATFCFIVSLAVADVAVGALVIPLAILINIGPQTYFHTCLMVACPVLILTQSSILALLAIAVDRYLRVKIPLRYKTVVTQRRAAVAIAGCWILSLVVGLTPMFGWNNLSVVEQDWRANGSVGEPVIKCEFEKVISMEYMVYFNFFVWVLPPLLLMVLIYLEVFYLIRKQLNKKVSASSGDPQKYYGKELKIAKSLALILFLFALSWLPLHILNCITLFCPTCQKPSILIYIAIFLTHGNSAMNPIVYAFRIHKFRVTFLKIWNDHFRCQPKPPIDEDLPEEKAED

rat A3 receptors = biological target: T4, rat A3 receptors (Rattus norvegicus, UniProt P28647); assay: Displacement of specific [125I]AB-MECA binding at rat A3 receptors stably expressed in CHO cells; conditions: Table 4
T4 construct: expressed in transfected cells
T4 sequence (P28647 1-320): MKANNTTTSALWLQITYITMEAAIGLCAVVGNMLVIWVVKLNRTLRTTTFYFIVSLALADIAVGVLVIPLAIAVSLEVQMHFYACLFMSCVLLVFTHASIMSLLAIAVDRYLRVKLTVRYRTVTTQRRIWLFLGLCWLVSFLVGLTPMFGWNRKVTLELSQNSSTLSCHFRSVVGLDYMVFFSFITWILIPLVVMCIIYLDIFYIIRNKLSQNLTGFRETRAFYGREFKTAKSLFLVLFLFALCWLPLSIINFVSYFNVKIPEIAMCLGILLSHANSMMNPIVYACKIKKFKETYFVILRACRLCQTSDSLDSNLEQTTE

For `CCOC(=O)C1=C(C)NC(c2ccccc2)=C(C(=O)OCC)C1C(OC)OC` (racemic) [Compound 66, 3,5-Diethyl 2-methyl-6-phenyl-4-(dimethoxymethyl)-1,4-(±)-dihydropyridine-3,5-dicarboxylate], the Ki (human A3 receptors; Table 3) was 15300 ± 3900 nM, the rA1/hA3 (human A3 receptors; Table 3) was over 5 and the “rA2A displacement of specific binding (class d)” value (from here on “rA2A displacement”) (A2A adenosine receptors; Table 3, at 10^−4 M) was “d (10^−4) (Displacement of < 10% of specific binding at the indicated concentration (M).)”. For the same compound, the inhibition at 100 µM (A1 adenosine receptors; Table 3, at 10^−4 M) was 32 ± 5%.
`CCCOC(=O)c1c(C)nc(-c2ccccc2)c(C(=O)OCC)c1C` [Compound 34, 3-Propyl 5-ethyl 2,4-dimethyl-6-phenylpyridine-3,5-dicarboxylate] showed a Ki (human A3 receptors; Table 2, compounds 33-58) of 215 ± 22 nM, a rA1/hA3 (human A3 receptors; Table 2) of 23 and a Ki (A2A adenosine receptors; Table 2, compounds 33-58) of 24500 ± 8500 nM. It also gave a Ki (A1 adenosine receptors; Table 2, compounds 33-58) of 5050 ± 540 nM.
In the case of `CCOC(=O)c1c(C)nc(-c2ccccc2)c(C(=O)OCC)c1C(OC)OC` [Compound 40, 3,5-Diethyl 2-methyl-4-(dimethoxymethyl)-6-phenylpyridine-3,5-dicarboxylate], the Ki (human A3 receptors; Table 2, compounds 33-58) is reported as 783 ± 154 nM, the rA1/hA3 (human A3 receptors; Table 2) is reported as 2.5 and the Ki (A2A adenosine receptors; Table 2, compounds 33-58) is reported as 2880 ± 610 nM. It also gave a Ki (A1 adenosine receptors; Table 2, compounds 33-58) of 1950 ± 430 nM.
`CCCOC(=O)c1c(-c2ccccc2)nc(CC)c(C(=O)SCC)c1CC` [Compound 49a, 5-Propyl 2,4-diethyl-3-(ethylsulfanylcarbonyl)-6-phenylpyridine-5-carboxylate] showed a Ki (human A3 receptors; Table 2, compounds 33-58) of 8.29 nM, a rA1/hA3 (human A3 receptors; Table 2) of 940 and a Ki (rat A3 receptors; [125I]AB-MECA, CHO cells, n = 3-5, read-out: rA3 Ki) of 183 ± 33 nM. The rA3/hA3 (rat A3 receptors; ratio of affinities at rat vs. human A3 receptors) was 22, the rA1/rA3 (rat A3 receptors; ratio of affinities rat A1 vs rat A3) was 42 and the Ki (A1 adenosine receptors; Table 2, compounds 33-58) was 7770 ± 1830 nM.
With `CCCCSC(=O)c1c(CC)nc(-c2cccc(Cl)c2)c(C(=O)OCCC)c1CC` [Compound 7] the rA1/hA3 (human A3 receptors; Table 2) was 7400 and the “rA2A displacement” value (A2A adenosine receptors; Table 2, at 10^−4 M) was “d (10^−4) (Displacement of <10% of specific binding at the indicated concentration (M).)”.
`CCOC(=O)c1c(-c2ccccc2)nc(CC)c(C(=O)SCC)c1CCCN1C(=O)c2ccccc2C1=O` [Compound 5] was tested, and the “hA3 percentage of specific binding displaced” value (human A3 receptors; Table 2, at 10^−6 M) was 28% (10^−6) and the “rA2A displacement” value (A2A adenosine receptors; Table 2, at 10^−4 M) was “d (10^−4) (Displacement of <10% of specific binding at the indicated concentration (M).)”.
In the case of `CCCOC(=O)c1c(-c2ccccc2)nc(CC)c(C(=O)SCCF)c1CCC` [Compound 15], the rA1/hA3 (human A3 receptors; Table 2) is reported as 150.
For `CCOC(=O)c1c(-c2ccccc2)nc(C2CCC2)c(C(=O)SCC)c1CC` [Compound 58, 5-Ethyl 2-cyclobutyl-4-ethyl-3-(ethylsulfanylcarbonyl)-6-phenylpyridine-5-carboxylate], the Ki (human A3 receptors; Table 2, compounds 33-58) was 145 ± 44 nM, the rA1/hA3 (human A3 receptors; Table 2) was over 500 and the “rA2A percentage of specific binding displaced” value (A2A adenosine receptors; Table 2, at 10^−4 M) was 22% (10^−4). For the same compound, the “rA1 percentage of specific binding displaced” value (A1 adenosine receptors; Table 2, at 10^−4 M) was 30% (10^−4).
With `CCCOC(=O)c1c(-c2ccccc2)nc(CC)c(C(=O)SCC(F)(F)F)c1CCC` [Compound 16] the rA1/hA3 (human A3 receptors; Table 2) was 460.
`CCCOC(=O)c1c(-c2cccc(F)c2)nc(CC)c(C(=O)SCC)c1CCC` [Compound 26] showed a rA1/hA3 (human A3 receptors; Table 2) of 280.
Work on `CCCOC(=O)c1c(-c2ccccc2F)nc(CC)c(C(=O)SCC)c1CCC` [Compound 25] yielded a rA1/hA3 (human A3 receptors; Table 2) of 590.
For `CCCOC(=O)C1=C(C)NC(c2ccccc2)=C(C(=O)OCC)C1C` (racemic) [Compound 60, 3-Propyl 5-ethyl 2,4-dimethyl-6-phenyl-1,4-(±)-dihydropyridine-3,5-dicarboxylate], the Ki (A2A adenosine receptors; Table 3) was 28900 ± 4800 nM and the Ki (A1 adenosine receptors; Table 3) was 1740 ± 3100 nM.
In the case of `CCOC(=O)c1c(-c2ccccc2)nc(CC)c2c1CCCNC2=O` [Compound 30], the “rA2A displacement” value (A2A adenosine receptors; Table 2, at 10^−4 M) is reported as “d (10^−4) (Displacement of <10% of specific binding at the indicated concentration (M).)”.
`CCOC(=O)C1=C(C)NC(C2CC2)=C(C(=O)OCc2ccccc2)C1C#Cc1ccccc1` (racemic) [Compound 70, 3-Ethyl 5-benzyl 2-methyl-4-phenylethynyl-6-cyclopropyl-1,4-(±)-dihydropyridine-3,5-dicarboxylate] was tested, and the “rA2A displacement” value (A2A adenosine receptors; Table 3, at 10^−4 M) was “d (10^−4) (Displacement of < 10% of specific binding at the indicated concentration (M).)” and the inhibition at 100 µM (A1 adenosine receptors; Table 3, at 10^−4 M) was 22 ± 1%.
In the case of `CCOC(=O)C1=C(CC)NC(c2ccccc2)=C(C(=O)OCC)C1C` (racemic) [Compound 74, 3,5-Diethyl 2-ethyl-6-phenyl-4-methyl-1,4-(±)-dihydropyridine-3,5-dicarboxylate], the “rA2A displacement” value (A2A adenosine receptors; Table 3, at 10^−4 M) is reported as “d (10^−4) (Displacement of < 10% of specific binding at the indicated concentration (M).)” and the inhibition at 100 µM (A1 adenosine receptors; Table 3, at 10^−4 M) is reported as 20 ± 4%.
